Laboratory results reported in patent US11400106B2, “Methods for inhibiting microbe growth” (priority 2018, dated 2022).
Like-named read-outs stand apart in the source and are kept apart here.

Experiments:
E. coli [1] = assay: microbe, parasite or virus in culture; type: cell-based, Escherichia coli
S. aureus [2] = assay: microbe, parasite or virus in culture; conditions: for MIC: Staphylococcus aureus
E. coli [3] = assay: Checkerboard microdilution with sodium bicarbonate against E. coli; type: cell-based, Escherichia coli
Experimental: (§1) In the following experiments, bacterial cells were cultured in 96-well microtiter plates in cation-adjusted Mueller-Hinton Broth (MHB) for 18 h at 37° C. The main strains used were E. coli (K-12 BW25113) (placed in stationary incubator) and S. aureus (Newman Strain) (incubated at 250 r.p.m). Knockout strains (ΔtolcC and ΔychM) were used from the Keio knockout collection (Baba et al., Construction of Escherichia coli K-12 in-frame, single-gene knockout mutants: the Keio collection. Mol Syst Biol 2, 2006 0008, doi:10.1038/msb4100050 (2006)). For MIC determination and checkerboard analyses, Clinical & Laboratory Standards Institute (CLSI) protocol was used. […] DiSC3 loading of S. aureus cells was performed as previously described (Farha et al., Collapsing the proton motive force to identify synergistic combinations against Staphylococcus aureus. Chemistry & biology 20, 1168-1178, doi:10.1016/j.chembiol.2013.07.006 (2013)). CCCP concentration of 20 μM was used. pH adjustments were made by addition of HCl or NaOH. INT assay and ATP bioluminescence assays were performed as previously described (Farha et al., Collapsing the proton motive force to identify synergistic combinations against Staphylococcus aureus. Chemistry & biology 20, 1168-1178, doi:10.1016/j.chembiol.2013.07.006 (2013)). For chemical-genomic studies, the Keio library was grown overnight in cation-adjusted MHB broth, in 384-well plates. From these, treatment plates (25 mM sodium bicarbonate, or a sterile water control) were inoculated and grown for 15 hours at 37° C., in a stationary incubator. Data was normalized according to Mangat et al (Mangat et al., Rank ordering plate data facilitates data visualization and normalization in high-throughput screening. J Biomol Screen 19, 1314-1320, doi:10.1177/1087057114534298 (2014)), with gene products and GO terms mined from EcoCyc. The GFP promoter library (Keseler et al., EcoCyc: fusing model organism databases with systems biology. Nucleic Acids Res 41, D605-612, doi:10.1093/nar/gks1027 (2013)) was grown for 18 hours at ambient temperature with the same inoculation strategy as with the Keio collection. The analysis pipeline of Zaslaver et al (Zaslaver et al., A comprehensive library of fluorescent transcriptional reporters for Escherichia coli. Nat Methods 3, 623-628, doi:10.1038/nmeth895 (2006)) was used to generate maps of promoter activity, from which lists of promoters with increased or decreased activity were compiled.
The effect of sodium bicarbonate on the activity of various antibacterial agents was investigated. Clinical isolates of various bacteria were obtained from the American Type Culture Collection (“ATCC”) and the International Health Management Associates (“IHMA”). Fractional inhibitory concentration indices (FICIs) were determined by setting up standard checkerboard broth microdilution assays in 96-well microtiter plates with serially diluted 8 (or 10) concentrations of each drug (sodium bicarbonate and the antibacterial agent). The protocol for checkerboard analyses was based on the CLSI guidelines. Plates were incubated at 37° C. for 18 hours, and optical density was read at 600 nm. At least 3 replicates were done for each query compound.
The FIC index (FICI) is the sum of the two FICs. Chemical-chemical interactions with ΣFIC of less or equal to 0.5 were deemed synergistic.
As validation, three of the antibiotic agents were further tested with checkerboard analyses. Checkerboard broth microdilution assays were set up in 96-well microtiter plates with serially diluted 8 (or 10) concentrations of each compound (sodium bicarbonate and the antibiotic). The protocol for checkerboard analyses was based on the CLSI guidelines. Plates were incubated at 37° C. for 18 hours, and optical density was read at 600 nm. At least 3 replicates were done for each query compound.

S. aureus [4] = assay: Checkerboard microdilution with nigericin; type: cell-based, Staphylococcus aureus
From the text: Shown are microdilution checkerboard analyses, where the extent of inhibition is shown as a heat plot, such that the darkest checkerboard square represents full bacterial growth.

Acinetobacter baumannii = assay: MIC determination against Acinetobacter baumannii; type: cell-based; conditions: for MIC: Acinetobacter baumannii
Experimental: as §1

Klebsiella pneumoniae = assay: MIC determination against Klebsiella pneumoniae; type: cell-based
Experimental: as §1, with “The GFP promoter library (Keseler et al., EcoCyc: fusing model organism databases with systems biology. Nucleic Acids Res 41, D605-612, doi:10.1093/nar/gks1027 (2013)) was grown for 18 hours at ambient temperature with the same inoculation strategy as with the Keio collection. The analysis pipeline of Zaslaver et al (Zaslaver et al., A comprehensive library of fluorescent transcriptional reporters for Escherichia coli. Nat Methods 3, 623-628, doi:10.1038/nmeth895 (2006)) was used to generate maps of promoter activity, from which lists of promoters with increased or decreased activity were compiled.” left out

Pseudomonas aeruginosa = assay: MIC determination against Pseudomonas aeruginosa; type: cell-based
Experimental: as §1, with “The GFP promoter library (Keseler et al., EcoCyc: fusing model organism databases with systems biology. Nucleic Acids Res 41, D605-612, doi:10.1093/nar/gks1027 (2013)) was grown for 18 hours at ambient temperature with the same inoculation strategy as with the Keio collection. The analysis pipeline of Zaslaver et al (Zaslaver et al., A comprehensive library of fluorescent transcriptional reporters for Escherichia coli. Nat Methods 3, 623-628, doi:10.1038/nmeth895 (2006)) was used to generate maps of promoter activity, from which lists of promoters with increased or decreased activity were compiled.” left out

Burkhloderia cenocepacia = assay: MIC determination against Burkhloderia cenocepacia; type: cell-based
Experimental: (§2) In the following experiments, bacterial cells were cultured in 96-well microtiter plates in cation-adjusted Mueller-Hinton Broth (MHB) for 18 h at 37° C. The main strains used were E. coli (K-12 BW25113) (placed in stationary incubator) and S. aureus (Newman Strain) (incubated at 250 r.p.m). Knockout strains (ΔtolcC and ΔychM) were used from the Keio knockout collection (Baba et al., Construction of Escherichia coli K-12 in-frame, single-gene knockout mutants: the Keio collection. Mol Syst Biol 2, 2006 0008, doi:10.1038/msb4100050 (2006)). For MIC determination and checkerboard analyses, Clinical & Laboratory Standards Institute (CLSI) protocol was used. […] DiSC3 loading of S. aureus cells was performed as previously described (Farha et al., Collapsing the proton motive force to identify synergistic combinations against Staphylococcus aureus. Chemistry & biology 20, 1168-1178, doi:10.1016/j.chembiol.2013.07.006 (2013)). CCCP concentration of 20 μM was used. pH adjustments were made by addition of HCl or NaOH. INT assay and ATP bioluminescence assays were performed as previously described (Farha et al., Collapsing the proton motive force to identify synergistic combinations against Staphylococcus aureus. Chemistry & biology 20, 1168-1178, doi:10.1016/j.chembiol.2013.07.006 (2013)). […]

Burkhloderia multivorans = assay: MIC determination against Burkhloderia multivorans; type: cell-based
Experimental: as §2

Enterococcus faecalis = assay: MIC determination against Enterococcus faecalis; type: cell-based
A. baumannii [5] = assay: Murine model of systemic A. baumannii infection; type: in vivo, Acinetobacter baumannii; conditions: mice
Experimental: Mice were treated two-hours post-infection to allow complete organ occupancy by the injected cells.

Saccharomyces cerevisiae = assay: MIC of pentamidine against Saccharomyces cerevisiae in YPD medium; type: cell-based
Experimental: Plates were incubated 24 hours and optical density read at 600 nm

E. coli MC1061 = assay: Membrane potential dissipation, DiSC3(5) fluorescence spectroscopy; type: cell-based, Escherichia coli; conditions: E. coli grown in standard growth media or supplemented with 25 mM sodium bicarbonate; compound at MIC
Experimental: E. coli MC1061 cells were washed twice and suspended in a buffer containing 20 mM glucose and 5 mM HEPES (pH 7.2). Final resuspension was diluted to an optical density at 600 nm of 0.085. DiSC3(5) was added at a final concentration of 1 and the dye was left to stabilize (1 hr at 37° C.). Compounds were then injected at concentrations equivalent to their MIC. Fluorescent traces were measured in a fluorimeter (Photon Technology International) at the excitation and emission wavelengths of 622 and 660 nm, respectively.
Briefly, due to the potential gradient, the dye is taken up by bacteria and accumulation in the membrane leads to a decrease in fluorescence intensity due to self-quenching. A subsequent increase in fluorescence intensity is observed only if the dye is displaced into the solution as a result of dissipation of the membrane potential.

A. baumannii [6] = assay: Superficial skin infection model, tape-stripped mice, A. baumannii; type: in vivo, Acinetobacter baumannii; conditions: 0.5% pentamidine topical, tissue collected 25 hr post-infection
Experimental: (§3) In this model, an infection is established by disrupting the skin barrier through partial removal of the epidermal layer by stripping with adhesive tape and with subsequent application of the pathogen. Tape-stripped mice infected with 4×10^6 CFU/mL A. baumannii (FIG. 4A) or 4×10^6 CFU/mL methicillin-resistant Staphylococcus aureus (MRSA) USA-300 (FIG. 4B). […] This treatment regime was also conducted for the Vehicle (1.9% Boric Acid, pH 7) as a control (n=4). Tissue samples were collected at 25 hr post-infection (FIG. 4A) and 28 hr post-infection (FIG. 4B). […] (FIG. 5).

[7] = system: methicillin-resistant Staphylococcus aureus (MRSA) USA-300; assay: Superficial skin infection model, tape-stripped mice, MRSA USA-300; type: in vivo
Experimental: as §3

[8] = read-out: MIC, tissue culture media formulated to mimic the natural environment

With `CO[C@@H]1[C@@H](OC(N)=O)[C@@H](O)[C@H](Oc2ccc3c(O)c(NC(=O)c4ccc(O)c(CC=C(C)C)c4)c(=O)oc3c2C)OC1(C)C` [Novobiocin] the “effect of 25 mM sodium bicarbonate on antibacterial activity” value (E. coli [1]) was “suppressed”, the MIC (E. coli [1]; Escherichia coli, 18 h, MHB in the absence of sodium bicarbonate, read-out: MIC, E. coli, MHB−) was 32 µg/mL and the “MIC, S. aureus, MHB+” value (S. aureus [2]) was 0.5. The “effect of 25 mM sodium bicarbonate on antibacterial activity” value (S. aureus [2]; S. aureus, result in words) was “suppressed”, the MIC (S. aureus [2]; 18 h, read-out: MIC, S. aureus, MHB−) was 0.031 µg/mL and the “interaction with sodium bicarbonate (checkerboard)” value (shortened to “interaction with sodium bicarbonate”) (E. coli [3]) was “suppressed”. The “interaction with nigericin (checkerboard)” value (S. aureus [4]) was “antagonistic interactions”.
For `N=C(N)c1ccc(OCCCCCOc2ccc(C(=N)N)cc2)cc1` [pentamidine isethionate], the “MIC, tissue culture media formulated to mimic the natural environment” value (E. coli [1]; Escherichia coli) was 1.5 µg/mL, the MIC (E. coli [1]; Escherichia coli, Mueller Hinton Broth, read-out: MIC, MHB) was 200 µg/mL and the MIC (E. coli [1]; Escherichia coli, read-out: MIC, tissue culture media formulated to mimic the natural environment) was 1 µg/mL. The MIC (S. aureus [2]; read-out: MIC, MHB) was 12.5 µg/mL, the MIC (S. aureus [2]; [8]) was less than 0.1 µg/mL and the “enhanced potency in tissue culture media formulated to mimic the natural environment” value (Acinetobacter baumannii; A. baumannii, versus standard media) was greater than 50 fold. The MIC (Acinetobacter baumannii; read-out: MIC, MHB) was 100 µg/mL, the MIC (Acinetobacter baumannii; [8]) was 12.5 µg/mL and the MIC (Klebsiella pneumoniae; read-out: MIC, MHB) was greater than 200 µg/mL. It also gave an MIC (Klebsiella pneumoniae; [8]) of 12.5 µg/mL, an MIC (Pseudomonas aeruginosa; read-out: MIC, MHB) greater than 200 µg/mL and an MIC (Pseudomonas aeruginosa; [8]) of 12.5 µg/mL. For the same molecule, the MIC (Burkhloderia cenocepacia; read-out: MIC, MHB) was greater than 200 µg/mL, the MIC (Burkhloderia cenocepacia; [8]) was 12.5 µg/mL and the MIC (Burkhloderia multivorans; read-out: MIC, MHB) was greater than 200 µg/mL. For the same molecule, the MIC (Burkhloderia multivorans; [8]) was 12.5 µg/mL, the MIC (Enterococcus faecalis; read-out: MIC, MHB) was 25 µg/mL and the MIC (Enterococcus faecalis; [8]) was 3.1 µg/mL. For the same molecule, the “interaction with sodium bicarbonate” value (E. coli [3]) was “greatly potentiated”.
With `N=C(N)c1ccc(OCCCCCOc2ccc(C(=N)N)cc2)cc1` [pentamidine] the rescue of animals (A. baumannii [5]; 50 mg/kg pentamidine IP, single dose 2 h post-infection, in the absence of novobiocin) was 80%, the “A. baumannii organ load (e.g., spleen) decrease” value (A. baumannii [5]; pentamidine alone) was “seven” and the MIC (Saccharomyces cerevisiae; 25 mM sodium bicarbonate) was 4 µg/mL. The MIC (Saccharomyces cerevisiae; 50 mM sodium bicarbonate) was 2 µg/mL, the MIC (Saccharomyces cerevisiae; no sodium bicarbonate) was 256 µg/mL and the “interaction with sodium bicarbonate” value (E. coli [3]) was “synergistic interaction”. The “effect on membrane potential” value (E. coli MC1061) was “dissipated the membrane potential”, the “reduction in CFU/mL compared to vehicle-treated mice” value (A. baumannii [6]) was 4 log and the “reduction in CFU/mL” value ([7]; 0.5% pentamidine topical, tissue collected 28 hr post-infection) was 5 log. The “effect of addition of bicarbonate (50 mM) on antibacterial efficacy in clearing an MRSA infection” value ([7]; topical 0.5% aqueous pentamidine solution with or without bicarbonate (50 mM)) was “increased the antibacterial efficacy”, the “potentiation of antibacterial activity in the presence of bicarbonate, on average” value (Gram-negative organisms) was 40 fold and the “potentiation of antibacterial activity in the presence of bicarbonate, on average” value (Gram-positive organisms) was 50 fold.
